Laboratory results reported in PMC3045627 (Journal of medicinal chemistry, 2010).
Read-outs that look alike come from different tables or passages of the source.

What was measured:
[1] = molecular target: human farnesyltransferase (hFTase) (Homo sapiens, UniProt P49354+P49356); test: In vitro hFTase inhibition: incorporation of [3H]FPP into recombinant H-Ras-CVLS; format: biochemical; settings: for selectivity (ratio of GGTase-I to FTase IC50s): GGTase-I IC50 / hFTase IC50; for fold improvement in hFTase inhibitory activity relative to 1az: relative to parent 1az
[2] = tested on: farnesylation of H-Ras in oncogenic H-Ras-transformed NIH3T3 cells; test: Whole cell inhibition of farnesylation; format: cell-based; settings: Mus musculus

Cn1cnc(S(=O)(=O)N(CCN(Cc2cncn2C)c2ccc(C#N)cc2)Cc2ccncc2)c1 [1af]
selectivity (ratio of GGTase-I to FTase IC50s) [1]: >139

Cn1cnc(S(=O)(=O)N(CCN(Cc2cncn2C)c2ccc(C#N)cc2)Cc2ccsc2)c1 [1ai, [N-(Thiophen-3-ylmethyl), N-{2-[(4-Cyanophenyl)-(3-methyl-3H-imidazol-4-ylmethyl)-amino]-ethyl}] 1-Methyl-1H-imidazole-4-sulfonamide]
times as potent against hFTase as isomeric 1ak ([1]; relative to 1ak): more than 34 times

Cc1c(CN(CCN(Cc2cncn2C)c2ccc(C#N)cc2)S(=O)(=O)c2cn(C)cn2)cnn1C [1an, [N-(1,3,5-Trimethyl-1H-pyrazol-4-ylmethyl), N-{2-[(4-Cyanophenyl)-(3-methyl-3H-imidazol-4-ylmethyl)-amino]-ethyl}] 1-Methyl-1H-imidazole-4-sulfonamide]
selectivity (ratio of GGTase-I to FTase IC50s) [1]: >1.9

Cn1cnc(S(=O)(=O)N(CCN(Cc2cncn2C)c2ccc(C#N)cc2)Cc2ccc(-n3cccc3)cc2)c1 [1av]
fold improvement of in vitro hFTase inhibition relative to 1au ([1]; relative to 1au): approximately 4 fold

Cn1cnc(S(=O)(=O)N(CCN(Cc2cncn2C)c2ccc(C#N)cc2)CC2CCCCC2)c1 [1ax]
GGTase-I/FTase selectivity ([1]; selectivity for hFTase over GGTase-I): about 9 fold | IC50 ([2]; NIH3T3, read-out: processing IC50 (μM) H-Ras): 0.1 ± 0.07 µM | IC50 ([2]; NIH3T3, read-out: whole cell H-Ras processing IC50): ~0.09 µM

Cn1cnc(S(=O)(=O)N(CCN(Cc2cncn2C)c2ccc(C#N)cc2)CC2CCN(C(=O)OC(C)(C)C)CC2)c1 [1ay]
fold drop in hFTase inhibition relative to 1ax ([1]; relative to 1ax): > 60 fold

Cn1cnc(S(=O)(=O)N(CCN(Cc2cncn2C)c2ccc(C#N)cc2)CC2CCN(c3ncccn3)CC2)c1 [1az]
fold recovery of hFTase activity relative to 1ay ([1]; relative to 1ay): more than 7 fold

Cn1cnc(S(=O)(=O)N(CCN(Cc2cncn2C)c2ccc(C#N)cc2Cl)CC2CCN(c3ncccn3)CC2)c1 [19a, [N-{2-[(2-Chloro-4-cyanophenyl)-(3-methyl-3H-imidazol-4-ylmethyl)-amino]-ethyl}, N-{N-(2-Pyrimidinyl)-piperidin-4-ylmethyl}] 1-Methyl-1H-imidazole-4-sulfonamide]
selectivity (ratio of GGTase-I to FTase IC50s) [1]: >18

Cn1cnc(S(=O)(=O)N(CCN(Cc2cncn2C)c2ccc(C#N)nc2)CC2CCN(c3ncccn3)CC2)c1 [19b, N-(2-((2-Cyanopyridin-5-yl)((1-methyl-1H-imidazol-5-yl)methyl)-amino)ethyl)-1-methyl-N-((1-(pyrimidin-2-yl)piperidin-4-yl)methyl)-1H-imidazole-4-sulfonamide]
selectivity (ratio of GGTase-I to FTase IC50s) [1]: >19

Cn1cnc(S(=O)(=O)N(CCN(Cc2cncn2C)c2ccc(C#N)c(F)c2)CC2CCN(c3ncccn3)CC2)c1 [19e, [N-{2-[(3-Fluoro-4-cyanophenyl)-(3-methyl-3H-imidazol-4-ylmethyl)-amino]-ethyl}, N-{N-(2-Pyrimidinyl)-piperidin-4-ylmethyl}] 1-Methyl-1H-imidazole-4-sulfonamide]
fold improvement in hFTase inhibitory activity relative to 1az [1]: 2 fold

Cn1cnc(S(=O)(=O)N(CCN(Cc2cncn2C)c2ccc(C#N)cc2F)CC2CCN(c3ncccn3)CC2)c1 [19f, [N-{2-[(2-Fluoro-4-cyanophenyl)-(3-methyl-3H-imidazol-4-ylmethyl)-amino]-ethyl}, N-{N-(2-Pyrimidinyl)-piperidin-4-ylmethyl}] 1-Methyl-1H-imidazole-4-sulfonamide]
fold improvement in hFTase inhibitory activity relative to 1az [1]: approximately 8 fold

Cn1cnc(S(=O)(=O)N(CCCN(Cc2cncn2C)c2ccc(C#N)cc2)Cc2ccccc2)c1 [20a]
fold drop in hFTase inhibitory activity relative to 1a ([1]; relative to 1a): > 7 fold
